Values after ≈ are worked out from the molar mass of the structure shown. Where a name gives a salt, the structure may show the parent alone.
What was measured:
[1] = Aqueous solubility at two pH levels; type: physicochemical; conditions: aqueous solution
Rat PK (p.o.) = type: in vivo; conditions: plasma, po
HDAC = conditions: cells treated with compound; Ying et al. 2008a; read-out: IC50 HDAC inhibition; cited from earlier work
melanoma cell lines = conditions: series of melanoma cell lines; Bowers et al. 2008; cited from earlier work
HCT116 cells = conditions: Ying et al. 2008b; cited from earlier work
HEK293 = HEK293 normal cell line; Zeng et al. 2010; cited from earlier work
MDA-MB231 = conditions: Taori et al. 2008; cited from earlier work
HLF cells = conditions: HLF normal cell line; Zeng et al. 2010; cited from earlier work
[2] = tested on: HDAC proteins from class I and class II; conditions: purified full length HDAC proteins; Bowers et al. 2008; cited from earlier work
HCT 116 cells = conditions: Zeng et al. 2010; cited from earlier work
[3] = 10 mg/kg, Vehicle (0.02N HCl sol.)
[4] = 15 mg/kg, Vehicle (0.1N citrate buffer)

Question: With `CC(C)[C@@H]1NC(=O)C(C)(C)NC(=O)c2csc(n2)CNC(=O)C[C@@H](/C=C/CCSC(=O)[C@H](N)C(C)C)OC1=O.Cl` [Example 1, (R)—S-((E)-4-((7S,10S)-7-isopropyl-4,4-dimethyl-2,5,8,12-tetraoxo-9-oxa-16-thia-3,6,13,18-tetraazabicyclo[13.2.1]octadeca-1(17),15(18)-dien-10-yl)but-3-en-1-yl) 2-amino-3-methylbutanethioate Hydrochloride] as the molecule, how does the solubility ([1]; pH 3, aqueous buffer) read?
Answer: 8.67 mg/mL

Question: What about the solubility ([1]; pH 6, aqueous buffer) of the same molecule?
Answer: 10.5 mg/mL

Question: What about the AUC(0-inf) (Rat PK (p.o.); [3]) of the same molecule?
Answer: 257 ng·h/mL

Question: And the Cmax (Rat PK (p.o.); [3])?
Answer: 86 ng/mL

Question: And the Tmax (Rat PK (p.o.); [3])?
Answer: 0.42 h

Question: What about the half-life (Rat PK (p.o.); [3]) of the same molecule?
Answer: 8.53 h

Question: Which solubility ([1]; pH 3, aqueous buffer) does the source give for `CC(C)[C@H](N)C(=O)SCC/C=C/[C@@H]1CC(=O)NCc2nc(cs2)C(=O)NC(C)(C)C(=O)N[C@@H](C(C)C)C(=O)O1.Cl` [Example 2, (S)—S-((E)-4-((7S,10S)-7-isopropyl-4,4-dimethyl-2,5,8,12-tetraoxo-9-oxa-16-thia-3,6,13,18-tetraazabicyclo[13.2.1]octadeca-1(17),15(18)-dien-10-yl)but-3-en-1-yl) 2-amino-3-methylbutanethioate Hydrochloride] here?
Answer: 12.3 mg/mL

Question: And the solubility ([1]; pH 6, aqueous buffer)?
Answer: 18 mg/mL

Question: And the AUC(0-inf) (Rat PK (p.o.); [3])?
Answer: 267 ng·h/mL

Question: And the Cmax (Rat PK (p.o.); [3])?
Answer: 123 ng/mL

Question: What about the Tmax (Rat PK (p.o.); [3]) of the same molecule?
Answer: 0.48 h

Question: And the half-life (Rat PK (p.o.); [3])?
Answer: 8.23 h

Question: Which results are given for `CC(C)[C@H](N)C(=O)SCC/C=C/[C@@H]1CC(=O)NCc2nc(cs2)C(=O)NC(C)(C)C(=O)N[C@@H](C(C)C)C(=O)O1.O=S(=O)(O)c1ccccc1` [Example 3, (S)—S-((E)-4-((7S,10S)-7-isopropyl-4,4-dimethyl-2,5,8,12-tetraoxo-9-oxa-16-thia-3,6,13,18-tetraazabicyclo[13.2.1]octadeca-1(17),15(18)-dien-10-yl)but-3-en-1-yl) 2-amino-3-methylbutanethioate Benzenesulfonate]?
Answer: solubility ([1]; pH 3, aqueous buffer): 7.5 mg/mL; AUC(0-inf) (Rat PK (p.o.); [4]): 583 ng·h/mL; Cmax (Rat PK (p.o.); [4]): 253 ng/mL; Tmax (Rat PK (p.o.); [4]): 0.6 h; half-life (Rat PK (p.o.); [4]): 12.4 h

Question: For `CC(C)[C@@H]1NC(=O)C(C)(C)NC(=O)c2csc(n2)CNC(=O)C[C@@H](/C=C/CCSC(=O)[C@H](C)N)OC1=O` [Example 4, (S)—S-((E)-4-((7S,10S)-7-isopropyl-4,4-dimethyl-2,5,8,12-tetraoxo-9-oxa-16-thia-3,6,13,18-tetraazabicyclo[13.2.1]octadeca-1(17),15(18)-dien-10-yl)but-3-en-1-yl) 2-aminopropanethioate Oxalate], which solubility ([1]; pH 3, aqueous buffer) is on record?
Answer: 15.4 mg/mL

Question: What about the solubility ([1]; pH 6, aqueous buffer) of the same molecule?
Answer: 25.2 mg/mL

Question: What about the AUC(0-inf) (Rat PK (p.o.); [3]) of the same molecule?
Answer: 176 ng·h/mL

Question: And the Cmax (Rat PK (p.o.); [3])?
Answer: 51 ng/mL

Question: What about the Tmax (Rat PK (p.o.); [3]) of the same molecule?
Answer: 1 h

Question: And the half-life (Rat PK (p.o.); [3])?
Answer: 6.09 h

Question: With `CC(C)[C@@H]1NC(=O)C(C)(C)NC(=O)c2csc(n2)CNC(=O)C[C@@H](/C=C/CCSC(=O)[C@@H](C)N)OC1=O` [Example 5, (R)—S-((E)-4-((7S,10S)-7-isopropyl-4,4-dimethyl-2,5,8,12-tetraoxo-9-oxa-16-thia-3,6,13,18-tetraazabicyclo[13.2.1]octadeca-1(17),15(18)-dien-10-yl)but-3-en-1-yl) 2-aminopropanethioate Oxalate] as the molecule, how does the solubility ([1]; pH 3, aqueous buffer) read?
Answer: 45.5 mg/mL

Question: What about the solubility ([1]; pH 6, aqueous buffer) of the same molecule?
Answer: 41.8 mg/mL

Question: With `CC(C)[C@@H]1NC(=O)C(C)(C)NC(=O)c2csc(n2)CNC(=O)C[C@@H](/C=C/CCSC(=O)CN(C)C)OC1=O` [Example 6, S-((E)-4-((7S,10S)-7-isopropyl-4,4-dimethyl-2,5,8,12-tetraoxo-9-oxa-16-thia-3,6,13,18-tetraazabicyclo[13.2.1]octadeca-1(17),15(18)-dien-10-yl)but-3-en-1-yl) 2-(dimethylamino)ethanethioate] as the molecule, how does the solubility ([1]; pH 3, aqueous buffer) read?
Answer: 2.45 mg/mL (≈ 4.32 mM)

Question: And the solubility ([1]; pH 6, aqueous buffer)?
Answer: 2.32 mg/mL (≈ 4.09 mM)

Question: What about the AUC(0-inf) (Rat PK (p.o.); [3]) of the same molecule?
Answer: 272 ng·h/mL

Question: And the Cmax (Rat PK (p.o.); [3])?
Answer: 107 ng/mL

Question: And the Tmax (Rat PK (p.o.); [3])?
Answer: 0.83 h

Question: And the half-life (Rat PK (p.o.); [3])?
Answer: 5.86 h

Question: What does the source list for `CC(C)[C@@H]1NC(=O)C(C)(C)NC(=O)c2csc(n2)CNC(=O)C[C@@H](/C=C/CCSC(=O)c2cccnc2)OC1=O` [Example 7, S-((E)-4-((7S,10S,Z)-7-isopropyl-4,4-dimethyl-2,5,8,12-tetraoxo-9-oxa-3,6,13-triaza-1(4,2)-thiazolacyclotetradecaphane-10-yl)but-3-en-1-yl) pyridine-3-carbothioate]?
Answer: AUC(0-inf) (Rat PK (p.o.); [3]): 240 ng·h/mL; Cmax (Rat PK (p.o.); [3]): 150 ng/mL; Tmax (Rat PK (p.o.); [3]): 0.33 h; half-life (Rat PK (p.o.); [3]): 6.88 h

Question: For `CC(C)[C@@H]1NC(=O)[C@]2(C)CSC(=N2)c2csc(n2)CNC(=O)C[C@@H](/C=C/CCS)OC1=O` [largazole thiol], which IC50 (HDAC) is on record?
Answer: 209 nM

Question: What about the IC50 (melanoma cell lines) of the same molecule?
Answer: 380 to 2600 nM

Question: And the GI50 (HCT116 cells)?
Answer: 38 nM

Question: What does the source list for `CCCCCCCC(=O)SCC/C=C/[C@@H]1CC(=O)NCc2nc(cs2)C2=N[C@@](C)(CS2)C(=O)N[C@@H](C(C)C)C(=O)O1` [largazole, Largazole]?
Answer: IC50 (HDAC): 51 nM; GI50 (HEK293): 1360 nM; GI50 (MDA-MB231): 7.7 nM; IC50 (melanoma cell lines): 45 to 315 nM; GI50 (HCT116 cells): 44 nM; GI50 (HLF cells): 980 nM; HDAC inhibition in vitro compared to the thiol [2]: much weaker HDAC inhibitor; preference for HDACs 1, 2, and 3 over HDAC6 [2]: pronounced preference; GI50 (HCT 116 cells): 80 nM

Source: patent US11203602B2, “Thioester prodrugs of macrocycles as inhibitors of histone deacetylases” (OnKure, Inc., priority 2016, dated 2021)
